Values quoted from earlier work as cited in article PMC4891657, “Orexin 2 Receptor Antagonism is Sufficient to Promote NREM and REM Sleep from Mouse to Man” (Scientific Reports, 2016).

Tests used:
[1] = tested on: OX2R relative to OX1R; conditions: cited from earlier work
[2] = tested on: OX2R; set-up: method as in PMID 24376396, PMID 24368893; conditions: mice, 50 mg/kg ref 37, 38; cited from earlier work

COc1ccnc(N2CCC3(CCCN(Cc4c[nH]c5ccccc45)C3=O)CC2)n1 [IPSU]
OX2R/OX1R selectivity [1]: 6.2 fold
calculated OX2R occupancy achieved [2]: 48%

CC1(C)OC[C@H](NC(=O)Nc2ccc(Br)cc2Br)[C@H](c2ccccc2)O1 [JNJ-10397049]
OX2R selective [1]: ~ 320 x

Cc1cc(C)nc(N2CC3CN(C(=O)c4c(F)cccc4-n4nccn4)CC3C2)n1 (centres unmarked) [JNJ-42847922]
binding selectivity for OX2R relative to OX1R [1]: ~ 80 fold

Cc1cc(NC(=O)Nc2ccc(N(C)C)cc2)c2cc(F)cc(F)c2n1 [SB-408124]
OX1R selective [1]: ~ 64 x
